Measured values published in patent publication US20250027966A1, “A MICROFLUIDIC DEVICE TO DISPENSE A METABOLIC INDICATOR” (Hewlett-Packard Development Company, L.P., priority 2021, published 2025).

Test system: E. coli
Test: Resazurin fluorescence assay of E. coli mixed with ampicillin
Format: cell-based
Details: for fluorescence: 583 nm; for increase in fluorescence signal compared to resazurin alone: 4 hr incubation
Source text: In some examples, the metabolic indicator includes a fluorogenic compound. A non-limiting example of a fluorogenic compound that may be used as a metabolic indicator includes resazurin which is transformed to resorufin when mixed with living cells, such as with bacteria. […] Resorufin is fluorescent, which allows for monitoring the reaction. For example, resorufin is excited at around 540 nanometers (nm) and emits around 590 nm. Living cells, such as bacteria, may be mixed with resazurin for around one to four hours. For example, after incubation and to overcome the background signal, around 7×10^6 colony forming unit per milliliter (cfu/mL) of Escherichia coli may be present.
FIG. 2C illustrates the example apparatus 200 of FIG. 2A while the imaging device is capturing images of the substrate, in accordance with the present disclosure. As described with regards to FIG. 2B, the imaging device 215 may capture images at any point in time, and/or once a statiscially significant signal is detected. Also, as described with regards to FIG. 2A, resazurin reduction results in an increase in fluorescence. Accordingly, as bacterial concentration increases over time, more resazurin reduction results and the result is an increase in fluorescence. Antibiotic combinations that disrupt bacterial growth may therefore have less fluorescence than those combinations which have no effect. […] This conclusion may be obtained, because region 219-4, region 219-3, and region 219-2 each have a greater fluorescence level as compared to region 219-1, which is the result of more resazurin reduction by living cells (such as bacteria).
Background conversion of resazurin to resorufin (in absence of bacteria) can be calibrated out for increased sensitivity and reduction of assay time. Moreover, the minimum inhibitory concentration of the antibiotic (or antibiotic combination) can be measured, because the microfluidic device 211 is capable of dispensing very small volumes of reagents (e.g., antibiotics), as well as precise volumes of reagent combinations. The rate of fluorescence increase can be correlated to bacterial growth rate and thus the inhibition potential of a particular antibiotic can be measured, as illustrated in the graph included in FIG. 2C. This fluorescence readout may be obtained between 3 and 6 hours, and may thus be used for fast determination of combinations of antibiotics for antibiotic treatment.
As illustrated in the top portion of FIG. 6, a MIC test strip from Liofilchem® containing a gradient of ampicillin was applied on an agar plate coated with E. coli. The minimum inhibitory concentration of ampicillin was approximately 2 μg/mL. The E. coli was mixed with various concentrations of ampicillin (0 to 8 μg/mL) and resazurin, and the fluorescence was measured at various times. The concentrations of ampicillin used was 0 μg/mL, 0.25 μg/mL, 0.5 μg/mL, 1 μg/mL, 2 μg/mL, and 8 μg/mL. […] For the sample including E. coli and 8 μg/mL of ampicillin, the fluorescence increased from approximately 10,000 a.u. at 30 minutes, to approximately, 35,000 a.u. at 3 hours and 4 hours. For the sample including E. coli and 0 μg/mL of ampicillin, the fluorescence increased from approximately 10,000 a.u. at 30 minutes, to approximately, 50,000 a.u. at 3 hours and 10^5 a.u at 4 hours. For the sample including E. coli and 0.25 μg/mL of ampicillin, the fluorescence increased from approximately 10,000 a.u. at 30 minutes, to approximately 60,000 a.u. at 3 hours, and approximately 80,000 a.u. at 4 hours. For the sample including E. coli and 0.5 μg/mL of ampicillin, the fluorescence increased from approximately 10,000 a.u. at 30 minutes, to approximately 70,000 a.u. at 3 hours, and approximately 80,000 a.u. at 4 hours. For the sample including E. coli and 1 μg/mL of ampicillin, the fluorescence increased from approximately 10,000 a.u. at 30 minutes, to approximately 75,000 a.u. at 3 hours, and approximately 10^5 a.u. at 4 hours. […]

CC1(C)S[C@@H]2[C@H](NC(=O)[C@H](N)c3ccccc3)C(=O)N2[C@H]1C(=O)O [ampicillin]
fluorescence (E. coli + 0.25 μg/mL ampicillin + resazurin, 30 minutes): approximately 10,000 a.u.
fluorescence (E. coli + 0.25 μg/mL ampicillin + resazurin, 3 hours): approximately 60,000 a.u.
fluorescence (E. coli + 0.25 μg/mL ampicillin + resazurin, 4 hours): approximately 80,000 a.u.
fluorescence (E. coli + 0.5 μg/mL ampicillin + resazurin, 30 minutes): approximately 10,000 a.u.
fluorescence (E. coli + 0.5 μg/mL ampicillin + resazurin, 3 hours): approximately 70,000 a.u.
fluorescence (E. coli + 0.5 μg/mL ampicillin + resazurin, 4 hours): approximately 80,000 a.u.
fluorescence (E. coli + 1 μg/mL ampicillin + resazurin, 30 minutes): approximately 10,000 a.u.
fluorescence (E. coli + 1 μg/mL ampicillin + resazurin, 3 hours): approximately 75,000 a.u.
fluorescence (E. coli + 2 μg/mL ampicillin + resazurin, 30 minutes): approximately 10,000 a.u.
fluorescence (E. coli + 2 μg/mL ampicillin + resazurin, 3 hours): approximately 75,000 a.u.
fluorescence (E. coli + 8 μg/mL ampicillin + resazurin, 30 minutes): approximately 10,000 a.u.
fluorescence (E. coli + 8 μg/mL ampicillin + resazurin, 3 hours): ~35,000 a.u.
fluorescence (E. coli + 8 μg/mL ampicillin + resazurin, 4 hours): ~35,000 a.u.
increase in fluorescence signal compared to resazurin alone ([ampicillin]<2 μg/mL): 6 ×
increase in fluorescence signal compared to resazurin alone (ampicillin 8 μg/mL): 2 ×
